{"source": "patent EP4111863A1", "about": "“PHOSPHORUS USE EFFICIENCY ENHANCERS AS PLANT GROWTH PROMOTORS” (EuroChem Antwerpen, priority 2021, dated 2023)", "key": {"SPX1": {"tested_on": "SPX1", "assay": "Chemical activity assessment: SPX1 phosphate starvation biomarker, pSPX1::GUS reporter line, GUS stained area", "format": "in vivo, Arabidopsis thaliana", "how_it_was_run": "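Arabidopsis Col-0 pSPX1::GUS seedlings grown in 96-well plates in low-phosphate liquid modMS with 1% sucrose, compounds at 50 µM final (1% DMSO). At 7 days after germination, GUS stained 1.5 h at 37 °C and blue signal area measured from scans. Wells with leaf area 50% or less of control were omitted.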"}, "Arabidopsis [1]": {"tested_on": "Arabidopsis", "assay": "Arabidopsis vertical plate growth assay (primary root length, shoot biomass)", "format": "in vivo, Arabidopsis thaliana", "settings": "low phosphate", "procedure": "(§1) All Arabidopsis plant experiments were performed using the Arabidopsis thaliana Columbia-0 background. The Arabidopsis pSPX1::GUS line is described in the […] 2008, 54: 965-975. For rice, the cultivar Nipponbare was used. For maize, the cultivars DKC 2931 and B104 were used for regular pot experiments and sand-based pot experiments, respectively. For soybean, the cultivar Primus was used. […] The medium was solidified due to the addition of 0,6% Gelrite, unless stated otherwise. In case of vertical plates (root length and root hair measurements), the medium was supplied with 0.5% of sucrose and 1 µM (low phosphate, 1 µM KH2PO4, 9.9 mM KCI), 10 µM (low phosphate 10 µM KH2PO4, 9.9 mM KCI) or 1.25 mM KH2PO4 (high phosphate). Arabidopsis seeds were stratified for 2 days at 4 °C before germination. Seedlings were germinated in climate-controlled growth chambers at 22 °C under continuous light (100 µmol m^-2 s^-1). Husked rice seeds were germinated on wetted Whatman paper for 2 days at 37 °C and then transferred to Sterivent boxes or square Petri dishes with solid medium. Maize and soybean seeds were wetted 24 hours at room temperature prior to sowing in pots.\nArabidopsis primary root growth experiments were done on MS1/2 on vertical standing plates and roots were measured 11 days after germination. Roots were imaged using a flatbed scanner (EPSON Expression 11000XL) and root length was measured using ImageJ software. Arabidopsis shoot biomass was determined in 11 days after germination and growth on vertical standing plates with modMS. Arabidopsis leaf area was measured 21 days after germination on horizontal plates with modMS medium. Plates were scanned from the top using a flatbed scanner (EPSON Expression 11000XL) and the visible leaf area was measured using ImageJ software. Rice plate experiments used vertically standing Petri dishes containing MS1/2 medium (low phosphate - 0.001 mM) solidified with 0.8% washed agar. Plant height was measured 11 days after germination. Rice box experiments used modMS medium and a low phosphate condition of 0.025 mM phosphate. Plant height was measured 13 days after germination. All growth experiments occurred with 10 µM of compound and in low phosphate conditions, unless stated otherwise. Controls always received the same DMSO concentration."}, "Arabidopsis [2]": {"tested_on": "Arabidopsis", "assay": "Arabidopsis horizontal plate growth assay (leaf area)", "format": "in vivo, Arabidopsis thaliana", "settings": "10 µM, 21 days after germination", "procedure": "(§2) All Arabidopsis plant experiments were performed using the Arabidopsis thaliana Columbia-0 background. The Arabidopsis pSPX1::GUS line is described in the […] 2008, 54: 965-975. For rice, the cultivar Nipponbare was used. For maize, the cultivars DKC 2931 and B104 were used for regular pot experiments and sand-based pot experiments, respectively. For soybean, the cultivar Primus was used. […] The medium was solidified due to the addition of 0,6% Gelrite, unless stated otherwise. […]\n(§3) Arabidopsis primary root growth experiments were done on MS1/2 on vertical standing plates and roots were measured 11 days after germination. Roots were imaged using a flatbed scanner (EPSON Expression 11000XL) and root length was measured using ImageJ software. Arabidopsis shoot biomass was determined in 11 days after germination and growth on vertical standing plates with modMS. Arabidopsis leaf area was measured 21 days after germination on horizontal plates with modMS medium. Plates were scanned from the top using a flatbed scanner (EPSON Expression 11000XL) and the visible leaf area was measured using ImageJ software. […] Plant height was measured 11 days after germination. […] Plant height was measured 13 days after germination. […]"}, "Arabidopsis [3]": {"tested_on": "Arabidopsis", "assay": "Arabidopsis pot experiment", "format": "in vivo, Arabidopsis thaliana", "settings": "low phosphate, 10 µM, 4 weeks of growth", "procedure": "as §2\n(§4) Regular Arabidopsis and maize pot experiments used an unfertilized potting soil, which was supplemented at the start of the experiment with 50 ml H2O containing 0.25 g/l NH4NO3 and 0.44 g/l (high phosphate) or no (maize and soybean) or 0.11 g/l KH2PO (Arabidopsis) for low phosphate conditions. […] Compound concentration was 10 µM, calculated based on the total water content after watering, and was added at the start of the experiment (Arabidopsis) or once a week (maize). […] All parameters in the sand experiment, except the rate of leaf 4 (measured the first 4 days after emergence), were measured 19 days after sowing. Measurements in the pot experiments with potting soil were done after 4 weeks of growth, except for leaf 5, which was measured at 26 days. s. […]"}, "Rice [4]": {"tested_on": "Rice", "assay": "Rice plate experiment", "format": "in vivo", "settings": "low phosphate 0.001 mM, 10 µM, 11 days after germination", "procedure": "as §2, §3"}, "Rice [5]": {"tested_on": "Rice", "assay": "Rice box experiment", "format": "in vivo", "settings": "low phosphate 0.025 mM, 10 µM, 13 days after germination", "procedure": "as §2, §3"}, "Maize [6]": {"tested_on": "Maize", "assay": "Sand-based maize pot experiment", "format": "in vivo", "settings": "low phosphate, 10 µM", "procedure": "as §1\nas §4, with “conditions. For the sand-based maize pot experiment, sand was supplemented with 50 ml H2O containing 0.25 g/l NH4NO3 and 0.38 g/l (high phosphate) or 0.02 g/l (low phosphate) KH2PO4.” for “conditions.”"}, "Maize [7]": {"tested_on": "Maize", "assay": "Regular maize pot experiment (potting soil)", "format": "in vivo", "settings": "low phosphate, 10 µM once a week", "procedure": "as §1\nas §4, with “conditions. For the sand-based maize pot experiment, sand was supplemented with 50 ml H2O containing 0.25 g/l NH4NO3 and 0.38 g/l (high phosphate) or 0.02 g/l (low phosphate) KH2PO4.” for “conditions.”"}, "Maize [8]": {"tested_on": "Maize", "assay": "Long term maize pot experiment, cultivar B104 (Phenovision platform)", "format": "in vivo", "procedure": "(§5) Regular Arabidopsis and maize pot experiments used an unfertilized potting soil, which was supplemented at the start of the experiment with 50 ml H2O containing 0.25 g/l NH4NO3 and 0.44 g/l (high phosphate) or no (maize and soybean) or 0.11 g/l KH2PO (Arabidopsis) for low phosphate conditions. For the sand-based maize pot experiment, sand was supplemented with 50 ml H2O containing 0.25 g/l NH4NO3 and 0.38 g/l (high phosphate) or 0.02 g/l (low phosphate) KH2PO4. Potassium was balanced via addition of KCI. Compound concentration was 10 µM, calculated based on the total water content after watering, and was added at the start of the experiment (Arabidopsis) or once a week (maize). Indexed chlorophyll contents were received via a SPAD 502 Plus Chlorophyll Meter. All parameters in the sand experiment, except the rate of leaf 4 (measured the first 4 days after emergence), were measured 19 days after sowing. Measurements in the pot experiments with potting soil were done after 4 weeks of growth, except for leaf 5, which was measured at 26 days. s. The long term maize pot experiment was performed on the automated Phenovision platform (see Mertens et al, 2021, 20 https.l/doi.org/10.3389/fpls.2021.640914) with maize cultivars B104 and DKC2931. End point measurements occurred after 90 days (B104) or 70 days (DKC2931). Plants were grown on an unfertilized potting soil, which was fertilized bi-weekly with 50 mL modified Hoagland solution (2.5 x concentrated; but with 0.25 mM KH2PO4.)."}, "Maize [9]": {"tested_on": "Maize", "assay": "Long term maize pot experiment, cultivar DKC2931 (Phenovision platform)", "format": "in vivo", "settings": "DKC2931, 70 days", "procedure": "as §5"}, "[10]": {"tested_on": "Arabidopsis, rice, soybean and maize", "assay": "Growth experiments in different growing systems and plant species (summary statement)", "format": "in vivo", "settings": "result in words; plate, box or pot experiments", "procedure": "as §2, §3"}, "[11]": {"settings": "Arabidopsis vertical plate, 10 µM, 11 days after germination"}, "[12]": {"settings": "Maize pot long term, B104, 90 days"}}, "data": [{"smiles": "Cc1nc(N2CCOCC2)sc1CNCC1CN(C)CCO1", "note": "(stereo not shown) [Compound 4]", "values": [{"measurement": "GUS (SPX1) stained area normalized to the number of seeds (pixels)", "setting": "SPX1; Table 2, 50 µM compound, low phosphate modMS liquid medium, 7 days after germination, low phosphate control average of the same plate", "result": 9, "unit": "pixels"}, {"measurement": "suppression of the SPX1 biomarker (blue GUS staining)", "setting": "SPX1; result in words, 7 days of growth in low phosphate conditions", "result": "practically completely suppressed"}, {"measurement": "Primary root length (cm)", "setting": "Arabidopsis [1]; [11]", "result": 3.8, "unit": "cm"}, {"measurement": "Shoot biomass", "setting": "Arabidopsis [1]; [11]", "result": 26, "unit": "mg"}, {"measurement": "Primary root length (in % versus control)", "setting": "Arabidopsis [1]; Table 2, versus control without compound", "result": 211, "unit": "%"}, {"measurement": "primary root length relative to the control without compound", "setting": "Arabidopsis [1]; result in words, 10 µM, 11-day-old Arabidopsis plants", "result": "almost double"}, {"measurement": "Leaf area (mm^2)", "setting": "Arabidopsis [2]; low phosphate", "result": 91, "unit": "mm^2"}, {"measurement": "Leaf area (mm^2) in suboptimal phosphate conditions", "setting": "Arabidopsis [2]; suboptimal phosphate", "result": 151, "unit": "mm^2"}, {"measurement": "Rosette size (cm^2)", "setting": "Arabidopsis [3]", "result": 19, "unit": "cm^2"}, {"measurement": "Plant height (cm)", "setting": "Rice [4]", "result": 15.8, "unit": "cm"}, {"measurement": "Plant height (cm)", "setting": "Rice [5]", "result": 5.1, "unit": "cm"}, {"measurement": "Crown root number", "setting": "Maize [6]; 19 days after sowing", "result": 7}, {"measurement": "Plant height (cm)", "setting": "Maize [6]; 19 days after sowing", "result": 26, "unit": "cm"}, {"measurement": "Growth rate of leaf 4", "setting": "Maize [6]; first 4 days after emergence", "result": 2.3, "unit": "cm/day"}, {"measurement": "Plant height (cm)", "setting": "Maize [7]; 4 weeks of growth", "result": 62, "unit": "cm"}, {"measurement": "Shoot weight", "setting": "Maize [7]; 4 weeks of growth", "result": 4.4, "unit": "g"}, {"measurement": "Leaf 5 (cm)", "setting": "Maize [7]; 26 days", "result": 45, "unit": "cm"}, {"measurement": "Biomass", "setting": "Maize [8]; [12]", "result": 29, "unit": "g"}, {"measurement": "Plants with developed ears (%)", "setting": "Maize [8]; [12]", "result": 54, "unit": "%"}, {"measurement": "Sum of leaf length (cm)", "setting": "Maize [8]; [12]", "result": 5473, "unit": "cm"}, {"measurement": "ear formation", "setting": "Maize [8]; result in words, maize", "result": "stimulated"}, {"measurement": "Biomass", "setting": "Maize [9]", "result": 31, "unit": "g"}, {"measurement": "Plants with developed ears (%)", "setting": "Maize [9]", "result": 100, "unit": "%"}, {"measurement": "Sum of leaf length (cm)", "setting": "Maize [9]", "result": 3894, "unit": "cm"}, {"measurement": "effect on the shoot biomass, leaf area or plant height", "setting": "[10]", "result": "clear positive effect"}]}]}
